Assay results from patent US6642264B1, “Thiazolobenzoimidazole derivatives” (Yamanouchi Pharmaceutical Co., Ltd., priority 1999, dated 2003).
Counter-ions that a name gives are not always drawn.

Legend:
mGluR1 α = target: T1, mGluR1 α (Rattus norvegicus, UniProt P23385); test: phosphatidylinositol (PI) hydrolysis system using mGluR1 α expression cells; format: cell-based; conditions: read-out: IC50, inhibition of the reaction of glutamic acid in PI hydrolysis system
T1 construct: expressed in transfected cells

mGluR1 = target: T2, mGluR1 (Rattus norvegicus, UniProt P23385); test: mGluR1 binding test with tritium-labeled ligand on rat cerebellum P2 membrane fraction
T2 construct: from tissue; host or cells: rat (Wistar) cerebellum P2 membrane fraction
Experimental: Rats (Wistar, males, 9 to 12 weeks of age) were decapitated to excise cerebella. After weight measurement, they were homogenized in 7 to 10 volumes of 0.32 M sucrose solution. After 15 minutes of centrifugation at 900×g, the supernatant was preserved in a container (in ice). The precipitate was again homogenized in 0.32 M sucrose solution of the same volume of the first time and centrifuged at 900×g for 15 minutes. The supernatant obtained this time was combined with the previously obtained supernatant and centrifuged at 15,000×g for 20 minutes. The precipitate was homogenized in 5 mM Tris-HCl, pH 7.4, and centrifuged at 15,000×g for 15 minutes. This step was repeated again. The precipitate was homogenized in 50 mM Tris-HCl, pH 7.4, and centrifuged at 15,000×g for 15 minutes. The precipitate was homogenized in an appropriate amount of 50 mM Tris-HCl, pH 7.4, subdivided into small portions and then preserved at −80° C.
The binding test was carried out by the following modified method of Thomsen et al.
As the assay buffer, 50 mM Tris-HCl, 2.5 mM CaCl2, pH 7.4, was used. […] Quantity of the radioactivity was measured using a liquid scintillation counter. […]

T2 sequence (P23385 19-1199): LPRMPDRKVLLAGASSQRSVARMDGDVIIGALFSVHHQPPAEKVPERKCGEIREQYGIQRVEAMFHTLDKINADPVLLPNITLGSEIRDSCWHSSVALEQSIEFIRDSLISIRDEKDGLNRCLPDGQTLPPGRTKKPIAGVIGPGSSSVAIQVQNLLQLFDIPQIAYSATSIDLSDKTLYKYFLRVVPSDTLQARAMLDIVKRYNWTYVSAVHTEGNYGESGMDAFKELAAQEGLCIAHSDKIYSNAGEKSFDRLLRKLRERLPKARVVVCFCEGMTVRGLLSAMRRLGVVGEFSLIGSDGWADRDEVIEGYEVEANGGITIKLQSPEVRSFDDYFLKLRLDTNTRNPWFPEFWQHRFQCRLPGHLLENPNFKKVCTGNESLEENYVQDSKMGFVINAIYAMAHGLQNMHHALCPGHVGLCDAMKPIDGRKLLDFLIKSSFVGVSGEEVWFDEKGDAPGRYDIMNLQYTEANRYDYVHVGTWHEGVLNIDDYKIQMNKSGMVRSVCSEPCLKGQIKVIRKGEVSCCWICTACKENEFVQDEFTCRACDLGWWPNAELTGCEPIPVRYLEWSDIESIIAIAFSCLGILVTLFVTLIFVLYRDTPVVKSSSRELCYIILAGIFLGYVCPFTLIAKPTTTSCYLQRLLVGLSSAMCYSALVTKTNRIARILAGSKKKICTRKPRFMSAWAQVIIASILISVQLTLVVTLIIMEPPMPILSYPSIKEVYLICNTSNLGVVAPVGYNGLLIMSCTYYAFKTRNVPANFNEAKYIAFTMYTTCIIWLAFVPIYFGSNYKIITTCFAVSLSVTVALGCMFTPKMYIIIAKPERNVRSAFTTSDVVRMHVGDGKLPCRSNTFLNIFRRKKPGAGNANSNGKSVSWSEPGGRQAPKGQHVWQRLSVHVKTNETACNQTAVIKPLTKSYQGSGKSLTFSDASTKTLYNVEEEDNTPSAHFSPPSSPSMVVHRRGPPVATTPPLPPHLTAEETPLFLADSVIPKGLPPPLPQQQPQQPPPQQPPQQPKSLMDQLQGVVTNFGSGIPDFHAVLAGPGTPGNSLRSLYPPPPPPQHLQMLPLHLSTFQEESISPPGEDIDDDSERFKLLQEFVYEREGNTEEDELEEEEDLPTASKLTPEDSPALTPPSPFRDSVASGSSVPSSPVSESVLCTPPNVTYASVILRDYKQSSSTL
T1 sequence (P23385 19-1199): as above

| Structure (SMILES) | IC50 (mGluR1 α) | Bmax in the saturation test (mGluR1) | Kd (mGluR1; room temperature, 45 minutes, read-out: KD value in the saturation test) |
| --- | --- | --- | --- |
| CN(C(=O)c1cn2c(nc3ccc(NC(=O)CN)cc32)s1)C1CCCCC1 [Example 41, N-Cyclohexyl-6-glycylamino-N-methylthiazolo[3,2-a]benzoimidazole-2-carboxamide dihydrochloride] | 20 nM | – | – |
| [3H]C([3H])([3H])N(C(=O)c1sc2nc3ccc(N)cc3n2c1C)C1CCCCC1 [[^3H]-6-Amino-N-cyclohexyl-N,3-dimethylthiazolo[3,2-a]benzoimidazole-2-carboxamide] | – | 3.9 pmol/mg protein | 47 nM |
